The results in this text go back to ChEMBL document CHEMBL1201862, “PubChem BioAssay data set” (2004).

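Growth conditions: 96-well plates. Treatment: test compound, 48 hours, 5 concentrations. Analysis: linear interpolation between bracketing concentrations; unreached endpoints set to highest concentration. GI50 = concentration required for 50% inhibition of growth.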 Active and inactive are the calls of the source. Rule as the data show it: active = GI50 up to about 1.1 µM and inactive = higher. Some results are limits rather than exact numbers.

Test systems include BT-549; CAKI-1; EKVX; HT-29; Hs-578T; IGROV-1; NCI-H460; NCI/ADR-RES; OVCAR-5; RXF 393; SF-268; SF-295; SK-MEL-28; SNB-19; SNB-75; SR; SW-620; T47D; U-251; UACC-257.
Common to all, as to test: inhibition of tumour cell growth, NCI panel, 48 h

For `O=C(NNC(=O)c1ccccc1O)c1ccco1`, the GI50 with BT-549 is > 100 µM (inactive); in the test with CAKI-1 it was > 100 µM (inactive); in the test on EKVX, > 100 µM (inactive); in the test with HT-29 it was 51.5 µM (inactive); in the test with Hs-578T, > 100 µM (inactive); in the test with IGROV-1 it was 64.9 µM (inactive). Further, the GI50 in the test on NCI-H460 is 45.4 µM (inactive); in the test with NCI/ADR-RES it was 55.7 µM (inactive); in the test on OVCAR-5 it was > 100 µM (inactive); with RXF 393, > 100 µM (inactive); in the test on SF-268, > 100 µM (inactive); in the test on SF-295, > 100 µM (inactive). The GI50 is > 100 µM (inactive) in the test with SK-MEL-28; > 100 µM (inactive) in the test on SNB-19; 38.6 µM (inactive) in the test on SNB-75; 66.7 µM (inactive) in the test on SR; 67.8 µM (inactive) in the test on SW-620; > 100 µM (inactive) in the test on T47D. Further, the GI50 in the test on U-251 and in the test with UACC-257 was > 100 µM (inactive) each time.

For `N=C(N)N/N=C/c1c(Cl)nc2n1CCS2`, the GI50 in the test on BT-549 is > 100 µM (inactive); with CAKI-1, > 100 µM (inactive); with EKVX, > 100 µM (inactive); with HT-29 it was 38 µM (inactive); with Hs-578T, 64.1 µM (inactive); in the test with IGROV-1 it was > 100 µM (inactive). Besides, the GI50 is 48.4 µM (inactive) in the test on NCI-H460; > 100 µM (inactive) with NCI/ADR-RES; 76.9 µM (inactive) in the test with OVCAR-5; 22.5 µM (inactive) with RXF 393; 50.8 µM (inactive) with SF-268; 99.1 µM (inactive) in the test with SF-295. The GI50 was > 100 µM (inactive) in the test on SK-MEL-28; > 100 µM (inactive) in the test with SNB-19; > 100 µM (inactive) with SNB-75; 50.5 µM (inactive) in the test with SR; 73.8 µM (inactive) in the test on SW-620; > 100 µM (inactive) in the test with T47D. The figures for the GI50 in the test with U-251 and with UACC-257 were 82.4 µM (inactive) and > 100 µM (inactive), respectively.

For the compound `O=C(O)CSc1ccn(Cc2ccccc2)c1`, the GI50 in the test with BT-549, with CAKI-1, in the test with EKVX, in the test with HT-29, in the test on Hs-578T and with IGROV-1 was > 100 µM (inactive) each time. Besides, the GI50 with NCI-H460, in the test on NCI/ADR-RES, in the test on OVCAR-5, with RXF 393, with SF-268 and in the test with SF-295 was > 100 µM (inactive) in each case. For the same compound, the GI50 with SK-MEL-28, with SNB-19, in the test on SNB-75, with SR, in the test with SW-620 and in the test with T47D was > 100 µM (inactive) in each case. The GI50 with U-251 and in the test on UACC-257 was > 100 µM (inactive) in each case.

As to `CCC1(O)C(=O)OCc2c1cc1n(c2=O)Cc2cc3ccc(C=O)cc3nc2-1` (stereo not given), the GI50 in the test with BT-549 was 2.28 µM (inactive); with CAKI-1, 1.73 µM (inactive); in the test on EKVX it was 19.1 µM (inactive); with HT-29, 4.9 µM (inactive); in the test on Hs-578T, 17.8 µM (inactive); with IGROV-1, 8.09 µM (inactive). The GI50 with NCI-H460 was 0.493 µM (active); in the test with NCI/ADR-RES, 0.574 µM (active); with OVCAR-5 it was 7.29 µM (inactive); in the test on RXF 393, 2.2 µM (inactive); in the test on SF-268, 0.321 µM (active); in the test with SF-295, 3.23 µM (inactive). Besides, the GI50 in the test with SK-MEL-28 is 27.1 µM (inactive); in the test with SNB-19, 2.04 µM (inactive); in the test with SNB-75, 1.36 µM (inactive); in the test with SR it was < 0.013 µM (active); with SW-620, 1.03 µM (active); with T47D, 0.655 µM (active). Besides, the GI50 is 0.637 µM (active) in the test on U-251 and 6.19 µM (inactive) with UACC-257.

Take `CC1(C)O[C@H]2OC3CCC(=O)CC3(O)[C@H]2O1` (stereo not given in full): the GI50 with BT-549, in the test with CAKI-1, in the test with EKVX, in the test on HT-29, with Hs-578T and with IGROV-1 was > 100 µM (inactive) throughout. Moreover, the GI50 in the test with NCI-H460, in the test with NCI/ADR-RES, in the test on OVCAR-5, with RXF 393, in the test on SF-268 and in the test on SF-295 was > 100 µM (inactive) each time. Besides, the GI50 in the test on SK-MEL-28, in the test with SNB-19, in the test on SNB-75, with SR, with SW-620 and with T47D was > 100 µM (inactive) throughout. Further, the GI50 with U-251 and in the test on UACC-257 was > 100 µM (inactive) in each case.

As to `C[Si](C)(C)C1=C([Si](C)(C)C)C(Cl)(Cl)C1=O`, the GI50 is 3.63 µM (inactive) in the test on BT-549; 2.36 µM (inactive) with CAKI-1; 4.72 µM (inactive) in the test with EKVX; 3.11 µM (inactive) with HT-29; 10.4 µM (inactive) with Hs-578T; 3.73 µM (inactive) in the test with IGROV-1. For the same compound, the GI50 is 12.4 µM (inactive) in the test with NCI-H460; 3.42 µM (inactive) in the test on NCI/ADR-RES; 7.28 µM (inactive) in the test on OVCAR-5; 1.9 µM (inactive) in the test with RXF 393; 5.94 µM (inactive) in the test with SF-268; 9.1 µM (inactive) with SF-295. Besides, the GI50 in the test on SK-MEL-28 is 2.79 µM (inactive); in the test with SNB-19, 16 µM (inactive); with SNB-75, 8.77 µM (inactive); in the test on SR, 1.93 µM (inactive); in the test on SW-620 it was 2.27 µM (inactive); with T47D, 1.74 µM (inactive). In addition, the GI50 in the test on U-251 is 4.08 µM (inactive); with UACC-257 it was 2.05 µM (inactive).
